Key:
[1] = for mass density / viscosity / speed of sound: 101 kPa; for speed of sound: Frequency=2 MHz
[2] = xn = mol fraction of the nth substance listed; settings: 101 kPa, Liquid, x2 = 0; for speed of sound: Frequency=2 MHz

C[S+](C)[O-] [dimethyl sulfoxide]
[1], Liquid
Settings | mass density [kg/m3] | speed of sound [m/s] | viscosity [mPa·s]
298.15 K | 1095.37 | 1496 | 1.99
303.15 K | 1092.41 | 1472 | 1.8
308.15 K | 1086.07 | 1460 | 1.65
318.15 K | 1076.22 | 1428 | 1.38
328.15 K | 1066.09 | 1412 | 1.04

CCCCn1cc[n+](C)c1.[Cl-] [1-butyl-3-methylimidazolium chloride]
[1], Liquid
Settings | mass density [kg/m3] | speed of sound [m/s] | viscosity [mPa·s]
298.15 K | 1074.43 | 1868 | 29.21
303.15 K | 1071.38 | 1860 | 25.72
308.15 K | 1068.32 | 1848 | 21.21
318.15 K | 1062.14 | 1820 | 18.97
328.15 K | 1055.89 | 1804 | 16.74

C[S+](C)[O-] [dimethyl sulfoxide] + CCCCn1cc[n+](C)c1.[Cl-]
[2]
Settings | mass density [kg/m3] | speed of sound [m/s] | viscosity [mPa·s]
298.15 K | 1095.37 | 1496 | 1.99
303.15 K | 1092.41 | 1472 | 1.8
308.15 K | 1086.07 | 1460 | 1.65
318.15 K | 1076.22 | 1428 | 1.38
328.15 K | 1066.09 | 1412 | 1.04

CC[NH2+]CC.O=S(=O)([O-])O [diethylammonium hydrogen sulfate]
[1]
Settings | Normal melting temperature, visual observation [°C] | mass density, Metastable liquid [kg/m3] | speed of sound, Metastable liquid [m/s] | viscosity, Metastable liquid [mPa·s]
298.15 K | – | 1028.39 | 1432 | 25.8
303.15 K | – | 1023.97 | 1408 | 21.3
308.15 K | – | 1020.54 | 1392 | 18.1
318.15 K | – | 1012.68 | 1356 | 13.61
328.15 K | – | 1004.83 | 1324 | 10.2
Crystal | 81.00 | – | – | –

C[S+](C)[O-] [dimethyl sulfoxide] + CC[NH2+]CC.O=S(=O)([O-])O
[2]
Settings | mass density [kg/m3] | speed of sound [m/s] | viscosity [mPa·s]
298.15 K | 1095.37 | 1496 | 1.99
303.15 K | 1092.41 | 1472 | 1.8
308.15 K | 1086.07 | 1460 | 1.65
318.15 K | 1076.22 | 1428 | 1.38
328.15 K | 1066.09 | 1412 | 1.04

From the NIST ThermoML archive (doi:10.1016/j.fluid.2011.02.010)
